This note sets out measurements from patent US9802899B2, “Heterocyclic compounds as pesticides” (BAYER CROPSCIENCE AG, priority 2012, dated 2017).

The term log P denotes a log measure of how a compound divides between an organic and an aqueous phase. A lower log P goes with a more hydrophilic compound. As a reminder, the chromatographic logP is a lipophilicity value derived from retention on a column. Lower therefore signals lower lipophilicity.

The series can be described thus: Determination of the log P values by HPLC (formic acid method). The class given is physicochemical. As to conditions: reversed-phase column (C 18), acidic range (pH 3.4), 55° C. The procedure:
1) Description of Method for Determination of the Log P Values (Formic Acid Method)
Eluents for determination in the acidic range (pH 3.4):
Eluent A: acetonitrile+1 ml of formic acid/liter. Eluent B: water+0.9 ml of formic acid/liter.
The lambda max values were determined in the maxima of the chromatographic signals using the UV spectra from 200 nm to 400 nm.

With `O=C(Nc1cnn(-c2ccccc2Br)n1)c1ccccc1C(F)(F)F` [Compound I-2-6], the lipophilicity (log P) was 3.03.
Same read-out and setting: in the case of `O=C(Nc1cnn(-c2ccccc2Br)n1)c1cccnc1C(F)(F)F` [Compound I-2-8] it was 2.58; in that of `O=C(Nc1cnn(-c2ccccc2Br)n1)c1cccnc1Cl` [Compound I-2-9], 2.29.
On the same count and under the same terms, in the case of `O=C(Nc1nn(-c2ncccc2Cl)nc1Cl)c1ccccc1C(F)(F)F` [Compound I-2-11] it was 2.60; in that of `O=C(Nc1cnn(-c2ncccc2Cl)n1)c1ccccc1Cl` [Compound I-2-12], 2.22; in that of `O=C(Nc1cnn(-c2ncccc2Cl)n1)c1ccccc1Br` [Compound I-2-13], 2.26.
Still for that read-out and setting: in the case of `O=C(Nc1cnn(-c2ncccc2Cl)n1)c1ccccc1I` [Compound I-2-14] it was 2.36.
Turning to `O=C(Nc1cnn(-c2ncccc2Cl)n1)c1c(F)cccc1F` [Compound I-2-15], the “log P” value came out at 2.09.
Still for that read-out and setting: in the case of `Cn1nc(C(F)(F)F)c(C(=O)Nc2cnn(-c3ncccc3Cl)n2)c1F` [Compound I-2-16] it was 2.19; in that of `O=C(Nc1cnn(-c2ncccc2Br)n1)c1ccccc1C(F)(F)F` [Compound I-2-17], 2.46; in that of `O=C(Nc1cnn(-c2ncccc2Br)n1)c1ccccc1I` [Compound I-2-18], 2.43.
For `O=C(Nc1nn(-c2ccccc2Cl)nc1Cl)c1ccccc1C(F)(F)F` [Compound I-2-19], the “log P” value is reported as 3.21.
Still for that read-out and setting: in the case of `O=C(c1ccccc1C(F)(F)F)N(C(=O)c1ccccc1C(F)(F)F)c1nn(-c2ccccc2Cl)nc1Cl` [Compound I-2-20] it was 4.87.
`Cc1nn(-c2ccccc2Cl)nc1NC(=O)c1ccccc1C(F)(F)F` [Compound I-2-21]: the log partition coefficient (log P) turned out to be 2.93.
The same measure, in the same setting: in the case of `Cc1nn(-c2ccccc2Cl)nc1N(C(=O)c1ccccc1C(F)(F)F)C(=O)c1ccccc1C(F)(F)F` [Compound I-2-22] it was 4.54; in that of `O=C(c1cccnc1Cl)N(C(=O)c1cccnc1Cl)c1nn(-c2ccccc2Br)nc1Cl` [Compound I-2-23], 3.64; in that of `Cc1nn(-c2ccccc2Cl)nc1NC(=O)c1ccccc1I` [Compound I-2-24], 2.92.
The same measure, in the same setting: in the case of `Cc1nn(-c2ccccc2Cl)nc1N(C(=O)c1ccccc1I)C(=O)c1ccccc1I` [Compound I-2-25] it was 4.68; in that of `O=C(Nc1nn(-c2ccccc2Br)nc1Cl)c1ccccc1C(F)(F)F` [Compound I-2-26], 3.22.
Turning to `O=C(c1ccccc1C(F)(F)F)N(C(=O)c1ccccc1C(F)(F)F)c1nn(-c2ccccc2Br)nc1Cl` [Compound I-2-27], the “log P” value is listed as 4.87.
As for `O=C(Nc1nn(-c2ccccc2Br)nc1Cl)c1cccnc1C(F)(F)F` [Compound I-2-28], the “log P” value stood at 2.77.
The same measure, in the same setting: in the case of `O=C(Nc1nn(-c2ccccc2Br)nc1Cl)c1ccccc1Cl` [Compound I-2-29] it was 3.09; in that of `O=C(c1ccccc1Cl)N(C(=O)c1ccccc1Cl)c1nn(-c2ccccc2Br)nc1Cl` [Compound I-2-30], 4.87; in that of `O=C(Nc1nn(-c2ccccc2Br)nc1Cl)c1cccnc1Cl` [Compound I-2-31], 2.46.
The same measure, in the same setting: in the case of `O=C(Nc1nn(-c2ccccc2Br)nc1Cl)c1ccccc1I` [Compound I-2-32] it was 3.24; in that of `O=C(Nc1cnn(-c2ccccc2Br)n1)c1ccccc1I` [Compound I-2-33], 3.06; in that of `O=C(c1ccccc1I)N(C(=O)c1ccccc1I)c1nn(-c2ccccc2Br)nc1Cl` [Compound I-2-34], 5.06.
On the same count and under the same terms, in the case of `O=C(Nc1cnn(-c2c(F)cccc2F)n1)c1ccccc1Br` [Compound I-2-36] it was 2.71; in that of `O=C(Nc1cnn(-c2c(F)cccc2F)n1)c1cccnc1Br` [Compound I-2-37], 2.09; in that of `O=C(Nc1cnn(-c2c(F)cccc2F)n1)c1ccccc1Cl` [Compound I-2-38], 2.66.
`O=C(Nc1cnn(-c2c(F)cccc2F)n1)c1ccsc1I` [Compound I-2-40]: the log partition coefficient (log P) stood at 2.90.
Still for that read-out and setting: in the case of `O=C(Nc1cnn(-c2ccc(C(F)(F)F)cn2)n1)c1ccccc1C(F)(F)F` [Compound I-2-42] it was 3.02; in that of `O=C(Nc1cnn(-c2ccc(C(F)(F)F)cn2)n1)c1ccccc1I` [Compound I-2-43], 3.04; in that of `O=C(Nc1cnn(-c2ncccc2F)n1)c1ccccc1C(F)(F)F` [Compound I-2-44], 2.18.
For the compound `O=C(Nc1cnn(-c2ncccc2F)n1)c1cccnc1C(F)(F)F` [Compound I-2-45], the “log P” value turned out to be 1.76.
Same read-out and setting: in the case of `O=C(Nc1cnn(-c2ncccc2F)n1)c1ccccc1Br` [Compound I-2-46] it was 2.04.
With `O=C(Nc1cnn(-c2ncccc2F)n1)c1cccnc1Br` [Compound I-2-47], the “log P” value worked out at 1.49.
For `O=C(Nc1cnn(-c2ncccc2F)n1)c1ccccc1Cl` [Compound I-2-48], the log partition coefficient (log P) is 1.99.
The same measure, in the same setting: in the case of `O=C(Nc1cnn(-c2ncccc2F)n1)c1ccsc1I` [Compound I-2-50] it was 2.20; in that of `O=C(c1ccccc1C(F)(F)F)N(C(=O)c1ccccc1C(F)(F)F)c1cnn(-c2ncccc2Cl)n1` [Compound I-2-52], 3.74; in that of `Cc1nn(-c2ncccc2Cl)nc1NC(=O)c1ccccc1C(F)(F)F` [Compound I-2-53], 2.33.
The same measure, in the same setting: in the case of `Cc1nn(-c2ncccc2Cl)nc1N(C(=O)c1ccccc1C(F)(F)F)C(=O)c1ccccc1C(F)(F)F` [Compound I-2-54] it was 3.93; in that of `O=C(Nc1cnn(-c2ncccc2Cl)n1)c1cccnc1C(F)(F)F` [Compound I-2-55], 1.95; in that of `O=C(Nc1cnn(-c2ncccc2Cl)n1)c1cccnc1Cl` [Compound I-2-56], 1.66.
Still for that read-out and setting: in the case of `O=C(Nc1cnn(-c2ncccc2Cl)n1)c1c(F)cccc1C(F)(F)F` [Compound I-2-57] it was 2.48.
Turning to `Cc1nn(-c2ncccc2Cl)nc1NC(=O)c1ccccc1I` [Compound I-2-59], the lipophilicity (log P) came out at 2.28.
Same read-out and setting: in the case of `O=C(Nc1nn(-c2ncccc2Cl)nc1Cl)c1ccccc1I` [Compound I-2-60] it was 2.57.
Same read-out and setting: in the case of `Cc1nn(-c2ncccc2Cl)nc1N(C(=O)c1ccccc1I)C(=O)c1ccccc1I` [Compound I-2-61] it was 4.03; in that of `O=C(Nc1cnn(-c2cc(F)cnc2F)n1)c1ccccc1C(F)(F)F` [Compound I-2-62], 2.77.
Turning to `O=C(Nc1cnn(-c2ncc(F)cc2F)n1)c1ccccc1C(F)(F)F` [Compound I-2-63, N-[2-(3,5-Difluoropyridin-2-yl)-2H-1,2,3-triazol-4-yl]-2-(trifluoromethyl)benzamide], the chromatographic logP (reversed-phase HPLC column (C 18)) worked out at 2.38.
Turning to `O=C(Nc1cnn(-c2ncc(Cl)cc2Cl)n1)c1cccnc1C(F)(F)F` [Compound I-2-64], the “log P” value is listed as 2.54.
In the case of `O=C(Nc1cnn(-c2ncc(Cl)cc2Cl)n1)c1ccccc1I` [Compound I-2-65], the lipophilicity (log P) is on record as 3.04.
Take `O=C(Nc1cnn(-c2ncc(F)cc2F)n1)c1ccccc1C(F)(F)F` [Compound I-2-66]: the lipophilicity (log P) was 2.43.
`O=C(Nc1cnn(-c2ncc(F)cc2F)n1)c1cccnc1C(F)(F)F` [Compound I-2-67]: the lipophilicity (log P) was determined as 2.00.
Same read-out and setting: in the case of `O=C(Nc1cnn(-c2ncc(F)cc2F)n1)c1ccccc1Br` [Compound I-2-68] it was 2.27; in that of `O=C(Nc1cnn(-c2ncc(F)cc2F)n1)c1cccnc1Br` [Compound I-2-69], 1.71.
On the same count and under the same terms, in the case of `O=C(Nc1cnn(-c2ncc(F)cc2F)n1)c1ccccc1Cl` [Compound I-2-70] it was 2.22.
Still for that read-out and setting: in the case of `O=C(Nc1cnn(-c2ncc(F)cc2F)n1)c1c(F)cccc1C(F)(F)F` [Compound I-2-71] it was 2.51; in that of `O=C(Nc1cnn(-c2ncc(F)cc2F)n1)c1ccsc1I` [Compound I-2-72], 2.44; in that of `O=C(Nc1cnn(-c2ncc(F)cc2F)n1)c1ccccc1I` [Compound I-2-73], 2.39.
As to `O=C(Nc1cnn(-c2ncc(C(F)(F)F)cc2Cl)n1)c1ccccc1C(F)(F)F` [Compound I-2-74], the “log P” value worked out at 3.28.
On the same count and under the same terms, in the case of `O=C(Nc1cnn(-c2ncc(C(F)(F)F)cc2Cl)n1)c1ccccc1I` [Compound I-2-75] it was 3.28; in that of `O=C(Nc1cnn(-c2c(F)cccc2F)n1)c1cccnc1C(F)(F)F` [Compound I-2-76], 2.40; in that of `O=C(Nc1cnn(-c2c(F)cccc2F)n1)c1c(F)cccc1F` [Compound I-2-77], 2.59.
Regarding `Cn1cc(C(=O)Nc2cnn(-c3c(F)cccc3F)n2)c(C(F)F)n1` [Compound I-2-78], the lipophilicity (log P) is 2.22.
Same read-out and setting: in the case of `O=C(Nc1cnn(-c2c(F)cccc2F)n1)c1nccnc1C(F)(F)F` [Compound I-2-79] it was 2.60; in that of `O=C(Nc1cnn(-c2c(F)cccc2F)n1)c1ncccc1C(F)(F)F` [Compound I-2-80], 2.78; in that of `O=C(Nc1cnn(-c2c(F)cccc2F)n1)c1ccncc1C(F)(F)F` [Compound I-2-81], 2.36.
On the same count and under the same terms, in the case of `O=C(Nc1cnn(-c2c(F)cccc2F)n1)c1sccc1C(F)(F)F` [Compound I-2-82] it was 2.95.
Still for that read-out and setting: in the case of `O=C(Nc1cnn(-c2c(F)cccc2F)n1)c1cnccc1C(F)(F)F` [Compound I-2-83] it was 2.36; in that of `O=C(Nc1cnn(-c2ncc(F)cc2F)n1)c1ncccc1C(F)(F)F` [Compound I-2-84], 2.28.
With `O=C(Nc1cnn(-c2ncc(F)cc2F)n1)c1sccc1C(F)(F)F` [Compound I-2-85], the “log P” value was found to be 2.50.
On the same count and under the same terms, in the case of `O=C(Nc1ccn(-c2c(F)cccc2F)c1)c1c(F)cccc1F` [Compound I-3-2] it was 2.68.
